22 compounds from article PMC9781217, “Discovery of Novel and Selective G-Protein Coupled Receptor 120 (GPR120) Agonists for the Treatment of Type 2 Diabetes Mellitus” (Molecules, 2022) can be followed below.

The target in one series is T1, human GPR120 (hGPR120) (Homo sapiens, UniProt Q5NUL3).
T1 sequence (Q5NUL3 1-361): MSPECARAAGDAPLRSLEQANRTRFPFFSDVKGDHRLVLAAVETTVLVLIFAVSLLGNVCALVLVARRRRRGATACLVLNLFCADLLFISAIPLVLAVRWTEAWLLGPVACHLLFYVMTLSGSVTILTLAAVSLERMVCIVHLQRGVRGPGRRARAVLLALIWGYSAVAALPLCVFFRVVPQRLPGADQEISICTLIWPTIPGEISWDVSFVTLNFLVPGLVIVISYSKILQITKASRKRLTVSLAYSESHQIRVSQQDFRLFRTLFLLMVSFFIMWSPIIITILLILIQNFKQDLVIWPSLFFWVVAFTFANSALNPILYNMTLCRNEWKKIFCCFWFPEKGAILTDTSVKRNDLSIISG
The series is described as follows: Calcium flux assay in hGPR120-transfected CHO cells. To be noted: for Selectivity: hGPR120 over hGPR40.

For another series, the target named is human GPR40 (hGPR40) (Homo sapiens, UniProt O14842). The series is described as follows: Calcium flux assay in hGPR40-expressing CHO cells. For orientation: Calcium assays in cells follow changes in intracellular calcium, usually with a dye or a luminescent sensor.
Sequence of human GPR40 (hGPR40) (O14842 whole entry): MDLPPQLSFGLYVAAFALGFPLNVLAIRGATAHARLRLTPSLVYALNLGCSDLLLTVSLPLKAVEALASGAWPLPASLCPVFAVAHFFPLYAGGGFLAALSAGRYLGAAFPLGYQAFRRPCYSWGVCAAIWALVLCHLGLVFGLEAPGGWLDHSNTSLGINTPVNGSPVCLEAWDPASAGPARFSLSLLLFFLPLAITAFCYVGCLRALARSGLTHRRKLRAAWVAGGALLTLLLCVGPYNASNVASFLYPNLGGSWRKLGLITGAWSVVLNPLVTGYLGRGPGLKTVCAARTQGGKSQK
The nature of series [1]: Pharmacokinetic analysis in C57BL/6 mice. Format: in vivo. To be noted: C57BL/6 mice. The procedure:
The pharmacokinetic profiles of 10k and 14d were obtained from C57BL/6 mice. […] The pharmacokinetic profiles traces were shown in the Supplementary Materials (Figure S1, see Supporting Materials).
Plasma was collected and precipitated using two volumes of acetonitrile containing an internal standard. This was followed by centrifugation at 15.680 g for 10 min after vortexing for 5 min. The supernatant was diluted with acetonitrile and 10 µL of the supernatant was analyzed by Waters LC-PDA-MS/MS to determine plasma drug levels. Pharmacokinetic parameters were determined using mean data from four mice at each time point. Statistical analysis of the data was performed using the DAS 2.1.1 statistical software program (BioVoice, Shanghai, China).

Setting [2] is: read-out: hGPR120 (EC50), calcium flux, hGPR120 CHO cells, mean of three determinations.
The mark [3] stands for this setting: read-out: hGPR40 (EC50), calcium flux, hGPR40 CHO cells, mean of three determinations.

“Also recorded” adds a separate entry of the source. Read-outs that look alike come from different tables or passages of the source.

Protocol for human GPR120 (hGPR120): (§1) A calcium flux assay was performed to assess the agonist activity of the test compounds against the hGPR120 (mGPR120) and hGPR40 (mGPR40) receptors. […] The medium in the wells was gently discarded, and the wells were washed with Hank’s balanced salt solution (HBSS; 100 μL per well). […] The cells were then washed thrice in HBSS and allowed to equilibrate for 10 min before conducting the assay. Test compounds dissolved in dimethyl sulfoxide were diluted in HBSS at various concentrations and added to Fluo-4 AM-containing cells, and intracellular Ca^2+ concentrations were measured using FlexStation3 Molecular Devices. The EC50 value of each compound was calculated using GraphPad Prism software (version 5.0; GraphPad Software, San Diego, CA, USA).
Protocol for human GPR40 (hGPR40): as §1

For the compound “4-(2-fluoro-4-(((4-fluoro-3′,5′-dimethyl-[1,1′-biphenyl]-2-yl)oxy)methyl)phenoxy)butanoic acid [Compound 14h]”, at human GPR120 (hGPR120) (setting [2]), the EC50 (usually the concentration needed to bring the measured effect to its halfway point) was determined as 0.421 µM.
On to `Cc1ccc(-c2ccc(F)cc2OCc2ccc(OCCCC(=O)O)c(F)c2)c(C)c1` [Compound 14i], for which, on human GPR120 (hGPR120), the EC50 was 0.159 µM and the Selectivity stood at 600.0. Also, at human GPR40 (hGPR40), the EC50 stood at 95.1 µM.
In the case of `Cc1ccc(-c2ccc(F)cc2OCc2ccc(OCCCC(=O)O)c(F)c2)cc1` [Compound 10k, 4-(2-fluoro-4-(((4-fluoro-4′-methyl-[1,1′-biphenyl]-2-yl)oxy)methyl)phenoxy)butanoic acid], the melting point – broadly, the temperature of the solid-liquid transition – fell in the range of 130 to 132 °C. Besides, on human GPR120 (hGPR120), the concentration for a half-maximal effect (EC50) stood at 0.0576 µM and the Selectivity stood at 1289.9. For the same compound, on human GPR40 (hGPR40), the EC50 is 74.3 µM. For the same compound, the “metabolic stability in vivo” value in series [1] (pharmacokinetics, in words) is given as “higher metabolic stability than TUG-891; also recorded: excellent metabolic stability”. In addition, the Tmax (in general, the time from dosing to the highest level) in series [1] (male, mouse, plasma, po, 10 mg/kg gavage) is 30 min. In addition, in series [1] (male, mouse, plasma, po, 10 mg/kg gavage, 0.5% MC, mean ± SD of four mice), the peak level (Cmax) was 2370 ± 335 ng/mL. Moreover, in series [1] (male, mouse, plasma, po, 10 mg/kg gavage, mean ± SD of four mice), the AUC – broadly, concentration integrated over time – came to 4250 ± 577 ng·h/mL. For the same compound, the half-life in series [1] (male, mouse, plasma, po, 10 mg/kg gavage, mean ± SD of four mice, read-out: t1/2 (converted)) is 66 ± 18 min.
The compound `Cc1ccc(-c2ccc(F)cc2OCc2ccc(OCCC(=O)O)cc2)cc1` [Compound 10b, 3-(4-(((4-fluoro-4′-methyl-[1,1′-biphenyl]-2-yl)oxy)methyl)phenoxy)propanoic acid] displayed a melting point of 120 to 122 °C. Further, the EC50 at human GPR120 (hGPR120) came out at 0.218 µM.
On the same counts, the results for `Cc1ccc(-c2ccc(F)cc2OCc2ccc(OCCCC(=O)O)c(F)c2)c(F)c1` [Compound 14n, 4-(4-(((2′,4-difluoro-4′-methyl-[1,1′-biphenyl]-2-yl)oxy)methyl)-2-fluorophenoxy)butanoic acid] are 92 to 94 °C and 0.313 µM.
For `O=C(O)CCCOc1ccc(COc2cc(F)ccc2-c2ccccc2F)cc1F` [Compound 14c, 4-(4-(((2′,4-difluoro-[1,1′-biphenyl]-2-yl)oxy)methyl)-2-fluorophenoxy)butanoic acid] the same measures were 94 to 96 °C and 0.168 µM.
For `Cc1cccc(-c2ccc(F)cc2OCc2ccc(OCCCC(=O)O)c(F)c2)c1` [Compound 14b, 4-(2-fluoro-4-(((4-fluoro-3′-methyl-[1,1′-biphenyl]-2-yl)oxy)methyl)phenoxy)butanoic acid], the values for the EC50 on human GPR120 (hGPR120) and on human GPR40 (hGPR40) were 0.0825 µM and 93.2 µM, respectively.
In the case of “4-(4-(((2′,4-difluoro-4′-methoxy-[1,1′-biphenyl]-2-yl)oxy)methyl)-2-fluorophenoxy)butanoic acid [Compound 14l]”, the Selectivity at human GPR120 (hGPR120) came to 665.2. The figures for the EC50 on human GPR120 (hGPR120) (setting [2]) and at human GPR40 (hGPR40) (setting [3]) were 0.137 µM and 90.8 µM, respectively.
In turn, `Cc1ccc(-c2ccc(F)cc2OCc2ccc(OCC(=O)O)c(C)c2)cc1` [Compound 10e, 2-(4-(((4-fluoro-4′-methyl-[1,1′-biphenyl]-2-yl)oxy)methyl)-2-methylphenoxy)acetic acid] returned a melting point of 128 to 130 °C. In addition, on human GPR120 (hGPR120), the EC50 came to 0.139 µM and the Selectivity stood at 1019.5. In addition, the EC50 at human GPR40 (hGPR40) was 141 µM.
With `Cc1ccc(-c2ccc(F)cc2OCc2ccc(OCCCCC(=O)O)c(F)c2)cc1` [Compound 10l, 5-(2-fluoro-4-(((4-fluoro-4′-methyl-[1,1′-biphenyl]-2-yl)oxy)methyl)phenoxy)pentanoic acid], the EC50 was found to be 0.0968 µM on human GPR120 (hGPR120) and 94.7 µM at human GPR40 (hGPR40).
Consider “4-(2-fluoro-4-(((4-fluoro-2′,4′-dimethyl-[1,1′-biphenyl]-2-yl)oxy)methyl)phenoxy)butanoic acid [Compound 14f]”, for which the Selectivity at human GPR120 (hGPR120) amounted to 604.0. The values for the EC50 at human GPR120 (hGPR120) (setting [2]) and at human GPR40 (hGPR40) (setting [3]) were 0.17 µM and 103 µM, respectively.
In turn, `Cc1ccc(-c2ccc(F)cc2OCc2ccc(OCCCCC(=O)O)cc2)cc1` [Compound 10d, 5-(4-(((4-fluoro-4′-methyl-[1,1′-biphenyl]-2-yl)oxy)methyl)phenoxy)pentanoic acid] returned a melting point of 124 to 126 °C. Besides, on human GPR120 (hGPR120), the 50% effective concentration (EC50) turned out to be 0.103 µM and the Selectivity is on record as 1391.5. For the same compound, at human GPR40 (hGPR40), the EC50 turned out to be 144 µM.
Consider `Cc1ccccc1-c1ccc(F)cc1OCc1ccc(OCCCC(=O)O)c(F)c1` [Compound 14a, 4-(2-fluoro-4-(((4-fluoro-2′-methyl-[1,1′-biphenyl]-2-yl)oxy)methyl)phenoxy)butanoic acid], for which the melting point lay in the range of 83 to 85 °C. Besides, on human GPR120 (hGPR120), the EC50 is 0.0904 µM and the Selectivity came to 757.7. For the same compound, the EC50 on human GPR40 (hGPR40) turned out to be 68.5 µM.
As to `Cc1ccc(-c2ccc(F)cc2OCc2ccc(OCCC(=O)O)c(C)c2)cc1` [Compound 10f, 3-(4-(((4-fluoro-4′-methyl-[1,1′-biphenyl]-2-yl)oxy)methyl)-2-methylphenoxy)propanoic acid], the melting point was 125 to 127 °C. The EC50 at human GPR120 (hGPR120) amounted to 0.268 µM.
`Cc1ccc(-c2ccc(F)cc2OCc2ccc(OCC(=O)O)cc2)cc1` [Compound 10a, 2-(4-(((4-fluoro-4′-methyl-[1,1′-biphenyl]-2-yl)oxy)methyl)phenoxy)acetic acid]: the melting point lay in the range of 164 to 166 °C. Further, on human GPR120 (hGPR120), the EC50 came out at 0.0924 µM and the Selectivity was 824.7. The EC50 at human GPR40 (hGPR40) was found to be 76.2 µM.
Turning to `COc1ccc(-c2ccc(F)cc2OCc2ccc(OCCCC(=O)O)c(F)c2)cc1` [Compound 14e, 4-(2-fluoro-4-(((4-fluoro-4′-methoxy-[1,1′-biphenyl]-2-yl)oxy)methyl)phenoxy)butanoic acid], the melting point fell in the range of 103 to 105 °C. For the same compound, the EC50 at human GPR120 (hGPR120) was 0.26 µM.
`Cc1ccc(-c2ccc(F)cc2OCc2ccc(OCCCC(=O)O)c(F)c2)c(Cl)c1` [Compound 14m, 4-(4-(((2′-chloro-4-fluoro-4′-methyl-[1,1′-biphenyl]-2-yl)oxy)methyl)-2-fluorophenoxy)butanoic acid] registered a melting point of 105 to 107 °C. Besides, on human GPR120 (hGPR120), the EC50 is 0.187 µM and the Selectivity turned out to be 419.6. For the same compound, the EC50 on human GPR40 (hGPR40) was found to be 78.6 µM.
`Cc1ccc(-c2ccc(F)cc2OCc2ccc(OCC(=O)O)c(F)c2)cc1` [Compound 10i, 2-(2-fluoro-4-(((4-fluoro-4′-methyl-[1,1′-biphenyl]-2-yl)oxy)methyl)phenoxy)acetic acid] yielded a melting point of 90 to 92 °C. Moreover, at human GPR120 (hGPR120), the EC50 amounted to 0.0772 µM and the Selectivity worked out at 1129.5. For the same compound, the EC50 at human GPR40 (hGPR40) was determined as 87.2 µM.
`Cc1ccc(-c2ccc(F)cc2OCc2ccc(OCCCC(=O)O)cc2)cc1` [Compound 10c, 4-(4-(((4-fluoro-4′-methyl-[1,1′-biphenyl]-2-yl)oxy)methyl)phenoxy)butanoic acid] had a melting point of 106 to 108 °C. For the same compound, on human GPR120 (hGPR120), the EC50 came out at 0.129 µM and the Selectivity was determined as 875.6. For the same compound, the EC50 at human GPR40 (hGPR40) turned out to be 113 µM.
In the case of `Cc1ccc(-c2ccc(F)cc2OCc2ccc(OCCCC(=O)O)c(C)c2)cc1` [Compound 10g, 4-(4-(((4-fluoro-4′-methyl-[1,1′-biphenyl]-2-yl)oxy)methyl)-2-methylphenoxy)butanoic acid], the EC50 on human GPR120 (hGPR120) worked out at 0.38 µM.
Still for that read-out and setting: with `Cc1ccc(-c2ccc(F)cc2OCc2ccc(OCCCCC(=O)O)c(C)c2)cc1` [Compound 10h, 5-(4-(((4-fluoro-4′-methyl-[1,1′-biphenyl]-2-yl)oxy)methyl)-2-methylphenoxy)pentanoic acid] the figure was 0.206 µM.
With `Cc1ccc(-c2ccc(F)cc2OCc2ccc(OCCC(=O)O)c(F)c2)cc1` [Compound 10j, 3-(2-fluoro-4-(((4-fluoro-4′-methyl-[1,1′-biphenyl]-2-yl)oxy)methyl)phenoxy)propanoic acid], the EC50 turned out to be 0.112 µM on human GPR120 (hGPR120) and 85.5 µM at human GPR40 (hGPR40).
